From patent publication US20240368122A1, “JAK2 INHIBITORS AND METHODS OF USE THEREOF” (RELAY THERAPEUTICS, INC., priority 2021, published 2024)

Columns and labels:
[1] = test system: TF1 JAK2 V617F STAT5 reporter; assay: Cellular TF1 STAT5 assay (luciferase reporter), JAK2 V617F; assay type: cell-based; conditions: TF1 JAK2 V617F, read-out: Cell PD TF1 V617F STAT5 (IC50)
Outline: (§1)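 Measured in TF1 cells with mutant JAK2 V617F and STAT-responsive luciferase: 18-20 h compound exposure at 37 °C, then ONE-glo luminescence.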

[2] = test system: TF1 JAK2 V617F STAT3 reporter; assay: Cellular TF1 STAT3 assay (luciferase reporter), JAK2 V617F; assay type: cell-based; conditions: TF1 JAK2 V617F, read-out: Cell PD-TF1 JAK2 V617F STAT3 (IC50)
Outline: as §1

[3] = molecular target: T1, JAK2 JH2 WT (V536-D812) [W659A, W777A, F794H solubilizing mutations] (Homo sapiens, UniProt O60674, F794H/W659A/W777A); assay: Surface Plasmon Resonance (SPR) binding assay, JAK2 JH2 domain; conditions: SPR, JAK2 JH2 domain
T1 construct: **JAK2 JH2 WT (V536-D812) [W659A, W777A, F794H solubilizing mutations]; C-thrombin-avi-His6; thrombin cleavage site (C); His6 (C); purchased Biortus
Outline: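 Kinetics came from 1:1 fits of single-cycle runs at 20 °C: four 3-fold dilutions from 5 uM for JH1 or 500 nM for JH2, 60 s association, and 300 s or 1200 s dissociation respectively. Protein was freshly captured per compound in the presence of 10 uM stabilizer compound, with running buffer of pH 7.5 HEPES/NaCl/glycerol/DTT plus 2% DMSO.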

T1 sequence (O60674 536-812 W659A/W777A/F794H): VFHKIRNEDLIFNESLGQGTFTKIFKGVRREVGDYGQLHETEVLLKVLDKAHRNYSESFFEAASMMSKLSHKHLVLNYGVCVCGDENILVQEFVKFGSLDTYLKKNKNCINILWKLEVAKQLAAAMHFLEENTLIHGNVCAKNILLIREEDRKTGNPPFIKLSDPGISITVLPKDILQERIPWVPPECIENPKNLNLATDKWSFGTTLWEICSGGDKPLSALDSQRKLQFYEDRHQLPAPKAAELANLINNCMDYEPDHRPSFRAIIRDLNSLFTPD

CNC(=O)c1nnc(NC(=O)C2CC2)cc1Nc1cccc(-c2ccc(C(=O)N(C)Cc3ccns3)nc2)c1OC [Compound 59]
IC50 [1]: 5000 to 100000 nM | IC50 [2]: 500 to 5000 nM | Kd [3]: 0.01 to 10 nM

CNC(=O)c1nnc(NC(=O)C2CC2)cc1Nc1cccc(-c2ccc(C(=O)N(C)Cc3cncs3)nc2)c1OC [Compound 60]
IC50 [1]: 5000 to 100000 nM | IC50 [2]: 500 to 5000 nM | Kd [3]: 10 to 50 nM

[2H]C([2H])([2H])NC(=O)c1nnc(NC(=O)C2CC2)cc1Nc1cccc(-c2cnc(C(=O)N(C)Cc3ccn(C)n3)nc2)c1OC [Compound 62]
IC50 [1]: 500 to 5000 nM | IC50 [2]: 500 to 5000 nM | Kd [3]: 0.01 to 10 nM

[2H]C([2H])([2H])NC(=O)c1nnc(NC(=O)C2CC2)cc1Nc1cccc(-c2cnc(C(=O)N(Cc3ccn(C)n3)C([2H])([2H])[2H])nc2)c1OC [Compound 63]
IC50 [1]: 500 to 5000 nM | IC50 [2]: 500 to 5000 nM | Kd [3]: 0.01 to 10 nM

CNC(=O)c1nnc(NC(=O)C2CC2)cc1Nc1cccc(-c2cnc(C(=O)N(C)Cc3cn(C)nc3C(F)(F)F)nc2)c1OC [Compound 64]
IC50 [1]: 50 to 500 nM | IC50 [2]: 500 to 5000 nM | Kd [3]: 0.01 to 10 nM

CNC(=O)c1nnc(NC(=O)C2CC2)cc1Nc1ccc(C)c(-c2cnn(C3CN(Cc4ccccn4)C3)c2)c1OC [Compound 67]
IC50 [1]: 500 to 5000 nM | IC50 [2]: 500 to 5000 nM | Kd [3]: 0.01 to 10 nM

CNC(=O)c1nnc(NC(=O)C2CC2)cc1Nc1cccc(-c2cnn(C3CN(Cc4ncccc4F)C3)c2)c1OC [Compound 69]
IC50 [1]: 500 to 5000 nM | IC50 [2]: 500 to 5000 nM | Kd [3]: 0.01 to 10 nM

CNC(=O)c1nnc(NC(=O)C2CC2)cc1Nc1cccc(-c2cnn(C3CN(Cc4ncccn4)C3)c2)c1OC [Compound 70]
IC50 [1]: 500 to 5000 nM | IC50 [2]: 500 to 5000 nM | Kd [3]: 0.01 to 10 nM

CNC(=O)c1nnc(NC(=O)C2CC2)cc1Nc1cccc(-c2ccc(C(=O)N(C)Cc3cc(C#N)n(C)n3)nc2)c1OC [Compound 71]
IC50 [1]: 50 to 500 nM | IC50 [2]: 50 to 500 nM | Kd [3]: 0.01 to 10 nM

CNC(=O)c1nnc(NC(=O)C2CC2)cc1Nc1cccc(-c2ccc(C(=O)N(C)Cc3cc(S(C)(=O)=O)ccn3)nc2)c1OC [Compound 72]
IC50 [1]: 50 to 500 nM | IC50 [2]: 50 to 500 nM | Kd [3]: 0.01 to 10 nM

CNC(=O)c1nnc(NC(=O)C2CC2)cc1Nc1cccc(-c2ccc(C(=O)N(C)Cc3cc(S(C)(=O)=O)ccn3)cc2)c1OC [Compound 73]
IC50 [1]: 50 to 500 nM | IC50 [2]: 50 to 500 nM | Kd [3]: 0.01 to 10 nM

[2H]C([2H])([2H])NC(=O)c1nnc(NC(=O)C2CC2)cc1Nc1cccc(-c2ccc(C(=O)N(Cc3cc(C#N)ccn3)C([2H])([2H])[2H])nc2)c1OC [Compound 74]
IC50 [1]: 50 to 500 nM | IC50 [2]: 50 to 500 nM | Kd [3]: 0.01 to 10 nM

CNC(=O)c1nnc(NC(=O)C2CC2)cc1Nc1cccc(-c2ccc(C(=O)N(C)Cc3cn(C)nc3C(F)(F)F)nn2)c1OC [Compound 75]
IC50 [1]: 500 to 5000 nM | IC50 [2]: 500 to 5000 nM | Kd [3]: 0.01 to 10 nM

CNC(=O)c1nnc(NC(=O)C2CC2)cc1Nc1cccc(-c2ccc(C(=O)N(C)Cc3ccn(C)n3)nn2)c1OC [Compound 76]
IC50 [1]: 500 to 5000 nM | IC50 [2]: 500 to 5000 nM | Kd [3]: 0.01 to 10 nM

CNC(=O)c1nnc(NC(=O)C2CC2)cc1Nc1cccc(-c2cnn(C3CN(Cc4nccc(C)n4)C3)c2)c1OC [Compound 77]
IC50 [1]: 500 to 5000 nM | IC50 [2]: 50 to 500 nM | Kd [3]: 0.01 to 10 nM

CNC(=O)c1nnc(NC(=O)C2CC2)cc1Nc1cccc(-c2cnn(C3CN(Cc4nccc(OC)n4)C3)c2)c1OC [Compound 78]
IC50 [1]: 500 to 5000 nM | IC50 [2]: 500 to 5000 nM | Kd [3]: 0.01 to 10 nM

[2H]C([2H])([2H])NC(=O)c1nnc(NC(=O)C2CC2)cc1Nc1cccc(-c2ccc(C(=O)N(C)Cc3ccn(C)n3)nc2)c1OC [Compound 79]
IC50 [1]: 500 to 5000 nM | IC50 [2]: 50 to 500 nM | Kd [3]: 0.01 to 10 nM

CNC(=O)c1nnc(NC(=O)C2CC2)cc1Nc1cccc(-c2ccc(C(=O)N(C)Cc3cccc(OC(F)F)c3)nc2)c1OC [Compound 80]
IC50 [1]: 500 to 5000 nM | IC50 [2]: 50 to 500 nM | Kd [3]: 0.01 to 10 nM

CNC(=O)c1nnc(NC(=O)C2CC2)cc1Nc1cccc(-c2ccc(C(=O)N(C)Cc3ccccc3C(C)C)nc2)c1OC [Compound 81]
IC50 [1]: 500 to 5000 nM | IC50 [2]: 500 to 5000 nM | Kd [3]: 10 to 50 nM
